{"source": "patent US20250281393A1", "about": "“BODY CAVITY GEL” (CS MEDICA A/S, priority 2021, published 2025)", "tested_on": "pathogens, such as virus, e.g. cold and/or flu", "details": "in vivo", "note": "Where two headings read alike, the source gives them in different places.", "data": [{"compound": "C=C(C)[C@@H]1CCC(C)=C[C@H]1c1c(O)cc(CCCCC)cc1O", "note": "[type A CBD, Cannabidiol]", "values": [{"measurement": "Activity (potency) in protection against pathogens, compared with type B CBD", "value": "significantly more active"}, {"measurement": "Activity (potency) in protection against pathogens, compared with type B CBD", "setting": "listed as crystal structure A", "value": "significantly more potent"}]}]}
